Experimental data reported in publication PMC11184559, “Identification and Validation of Compounds Targeting Leishmania major Leucyl-Aminopeptidase M17” (ACS Infectious Diseases, 2024).
Like-named read-outs stand apart in the source and are kept apart here.

Key:
[1] = system: LmLAP-overexpressing L. major promastigotes; experiment: Drug sensitivity assay (resazurin), LmLAP-overexpressing L. major promastigotes; format: cell-based; details: Leishmania major
Protocol: The basic L. major cytosolic leucyl aminopeptidase gene (LmjF.23.0950) was synthesized (GeneArt, Invitrogen) and cloned into the overexpression vector pIRT1_SAT by using BglII restriction sites. The pIRT1_SAT_LmLAP construct was sequenced to confirm correct sequence. Mid log phase L. major cells (1 × 10^7 cells) were transfected with 10 μg of heat-sterilized DNA using the Human T-Cell Nucleofector kit and AMAXA Nucleofector electroporator (program V-033). After a 24 h recovery period, nourseothricin was added to cultures to a final concentration of 100 μg/mL.
L. major promastigotes were seeded in 96-well plates at 5 × 10^4/mL, exposed to 2-fold serial dilutions of test compounds, and incubated at 28 °C for 72 h. Resazurin was, then, added to each well to a final concentration of 50 μM, and fluorescence was measured after 2–3 h (excitation of 528 nm and emission of 590 nm). The EC50 was calculated by processing the collected data by GRAFIT (version 5.0.4, Erithacus Software) and fitting them to the following two-parameter equation: [drawing 6] 6 where [I] is the inhibitor concentration, and m is the slope. Experiments were performed on at least three independent biological replicates. Data are presented as the weighted mean ± standard deviation.

[2] = system: RAW 264.7 murine macrophages; details: 100 μM, 48 h, MTT
Source text: Blank contains only culture medium. […] Each assay was developed in triplicate.

[3] = system: LmjF.23.0040 (peroxidoxin); experiment: Isothermal TPP (iTPP) thermal stabilization, LmjF.23.0040; format: binding, Leishmania major; details: L. major promastigote lysate, 47 °C, compound at 10× EC50 vs DMSO
Protocol: Cell lysates were obtained as detailed above. Isothermal TPP assays were performed as previously described[29] but here lysates were incubated at two temperatures: 28 and 47 °C. The first temperature (28 °C) acts as a control temperature at which the protein levels are not altered by the presence of the test compound. The second temperature (47 °C) is the Leishmania spp. median Tm (melting temperature or temperature 50%) according to our interim data. […] These samples were aliquoted and submitted to a temperature shock at the designated temperature for 3 min, then 3 min at room temperature, and finally 3 min on ice. The soluble part was isolated by ultracentrifugation (100,000g, 20 min, 4 °C).
All aspects of sample processing, TMT-labeling, fractionation by HPLC into 10 fractions, LC-MS/MS, and protein identification and quantitation were described previously.[28],[68] Proteins with less than three peptides and those with increased stability at 28 °C were disregarded.
Proteins were identified by searching the MS and MS/MS data for the peptides against L. major strain Friedlin (TriTryp version 61, tritrypdb.org) using MaxQuant (http://maxquant.org/, version 2.1.4.0). All proteomics data sets have been deposited to the ProteomeXchange Consortium via the PRIDE[69] partner repository with the identifier PXD00000. Data were analyzed with Perseus v 1.6.15.[70] […]

[4] = 72 h, read-out: EC50 (weighted mean), LmLAP-overexpressing (LAP-OE) L. major promastigotes
[5] = read-out: EC50 (LAP-OE), representative curve

| Compound | EC50 [1, 4] | EC50 [1, 5] | Maximum inhibitory effect, RAW 264.7 macrophage cell line [2] | Enrichment (log2) replica A, LmjF.23.0040 [3] | Enrichment (log2) replica B, LmjF.23.0040 [3] |
| --- | --- | --- | --- | --- | --- |
| COc1ccc(Cc2c(N)nc(-c3ccccn3)nc2N)cc1 [DDD00057570] | 7 ± 1 µM | 6.9 ± 1 µM | 52% | – | – |
| O=C(c1cccs1)N(CCCn1ccnc1)c1nc2ccccc2s1 [DDD00097924] | 11 ± 1 µM | 7.3 ± 1.4 µM | – | 1.31 log2 | 1.21 log2 |
